Reference: paper PMC3998376 (Journal of chromatography. A, 2014)
Values belong to the compound of their own block, whether it stands above or below them.

Tests used:
[1] = molecular target: T1, nuclear BCRP (Homo sapiens, UniProt Q9UNQ0); assay: Screening of BCRP ligands, single frontal displacement of etoposide on NMAC; conditions: NMAC(LN229) column, verapamil in mobile phase, etoposide as marker ligand
T1 sequence (Q9UNQ0 1-655): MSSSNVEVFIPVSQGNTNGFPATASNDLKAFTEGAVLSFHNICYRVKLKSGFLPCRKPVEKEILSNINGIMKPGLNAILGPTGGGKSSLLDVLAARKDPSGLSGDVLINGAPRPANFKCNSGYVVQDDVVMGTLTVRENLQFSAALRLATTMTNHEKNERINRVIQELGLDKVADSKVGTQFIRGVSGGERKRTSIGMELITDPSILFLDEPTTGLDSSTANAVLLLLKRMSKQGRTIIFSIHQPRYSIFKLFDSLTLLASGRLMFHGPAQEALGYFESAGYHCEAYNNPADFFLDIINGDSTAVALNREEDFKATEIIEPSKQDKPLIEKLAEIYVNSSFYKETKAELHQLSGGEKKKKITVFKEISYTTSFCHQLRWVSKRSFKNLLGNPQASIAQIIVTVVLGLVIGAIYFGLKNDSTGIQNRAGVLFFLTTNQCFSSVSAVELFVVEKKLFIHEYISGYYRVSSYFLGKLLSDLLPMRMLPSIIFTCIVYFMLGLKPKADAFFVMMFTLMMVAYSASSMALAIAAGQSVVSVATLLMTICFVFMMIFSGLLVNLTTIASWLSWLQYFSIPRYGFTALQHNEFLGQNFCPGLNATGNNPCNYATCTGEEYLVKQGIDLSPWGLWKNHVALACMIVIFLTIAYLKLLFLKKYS

[2] = test system: Pgp, MRP1 and BCRP transporters (LN-229 nuclear membranes, open tubular); assay: Frontal affinity chromatography on NMAC; type: binding, human; conditions: read-out: Binding affinity (Kd); NMAC(LN-229)-OT column, ammonium acetate 10 mM pH 7.4, 0.05 mL/min
[3] = test system: Pgp, MRP1 and BCRP transporters (LN-229 cellular membranes, open tubular); assay: Frontal affinity chromatography on CMAC; type: binding, human; conditions: read-out: Binding affinity (Kd); CMAC(LN-229)-OT column, ammonium acetate 10 mM pH 7.4, 0.05 mL/min
[4] = molecular target: T2, BCRP (Homo sapiens, UniProt Q9UNQ0); assay: Selective Kd determination on NMAC; type: binding
T2 sequence (Q9UNQ0 1-655): T1 sequence (Q9UNQ0 1-655)

[5] = molecular target: MRP1 (Homo sapiens, UniProt P33527); assay: Selective Kd determination on NMAC; type: binding
Sequence of MRP1 (P33527 whole entry): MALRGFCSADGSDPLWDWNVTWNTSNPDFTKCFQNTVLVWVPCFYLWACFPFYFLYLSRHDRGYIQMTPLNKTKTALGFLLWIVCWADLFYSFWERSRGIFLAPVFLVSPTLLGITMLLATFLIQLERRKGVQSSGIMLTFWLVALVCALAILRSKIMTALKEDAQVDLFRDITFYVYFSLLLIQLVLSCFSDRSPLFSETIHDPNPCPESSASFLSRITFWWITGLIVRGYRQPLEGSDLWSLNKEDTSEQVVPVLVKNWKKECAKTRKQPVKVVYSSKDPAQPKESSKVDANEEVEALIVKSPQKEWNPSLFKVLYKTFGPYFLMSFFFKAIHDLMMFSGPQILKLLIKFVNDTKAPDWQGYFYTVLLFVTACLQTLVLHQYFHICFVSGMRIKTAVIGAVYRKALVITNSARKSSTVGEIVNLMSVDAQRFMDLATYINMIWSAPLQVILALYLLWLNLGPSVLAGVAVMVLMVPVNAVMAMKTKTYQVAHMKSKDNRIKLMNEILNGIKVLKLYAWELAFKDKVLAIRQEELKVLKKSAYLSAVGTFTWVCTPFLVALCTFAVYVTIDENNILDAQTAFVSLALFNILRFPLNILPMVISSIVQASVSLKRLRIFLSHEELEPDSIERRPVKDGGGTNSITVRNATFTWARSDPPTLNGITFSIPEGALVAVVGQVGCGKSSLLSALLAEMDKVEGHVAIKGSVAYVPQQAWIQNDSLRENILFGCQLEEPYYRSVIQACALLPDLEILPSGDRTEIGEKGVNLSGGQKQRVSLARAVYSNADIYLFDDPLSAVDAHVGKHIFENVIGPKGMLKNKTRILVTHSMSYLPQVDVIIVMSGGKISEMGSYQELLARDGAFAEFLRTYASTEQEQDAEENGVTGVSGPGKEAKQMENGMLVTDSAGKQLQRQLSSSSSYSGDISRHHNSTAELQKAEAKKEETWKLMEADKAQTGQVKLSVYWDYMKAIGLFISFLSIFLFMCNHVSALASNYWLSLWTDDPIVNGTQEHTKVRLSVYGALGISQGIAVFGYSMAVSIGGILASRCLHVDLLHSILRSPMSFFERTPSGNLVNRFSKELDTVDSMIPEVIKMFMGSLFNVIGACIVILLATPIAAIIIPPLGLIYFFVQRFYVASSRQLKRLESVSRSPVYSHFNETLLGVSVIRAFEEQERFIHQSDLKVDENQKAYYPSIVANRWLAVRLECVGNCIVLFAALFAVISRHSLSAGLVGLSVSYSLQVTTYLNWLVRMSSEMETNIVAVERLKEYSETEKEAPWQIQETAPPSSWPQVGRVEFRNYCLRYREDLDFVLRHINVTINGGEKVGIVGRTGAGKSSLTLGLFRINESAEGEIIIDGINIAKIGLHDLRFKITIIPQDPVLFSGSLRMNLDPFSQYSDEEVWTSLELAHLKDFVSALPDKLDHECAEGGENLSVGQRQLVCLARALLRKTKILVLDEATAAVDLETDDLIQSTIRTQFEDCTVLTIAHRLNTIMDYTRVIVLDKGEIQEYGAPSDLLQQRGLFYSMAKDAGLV

[6] = test system: Pgp, MRP1 and BCRP; assay: Frontal affinity chromatography on NMAC; type: binding, human; conditions: human, pH 7.4
[7] = test system: Pgp, MRP1 and BCRP; assay: Frontal affinity chromatography on CMAC; type: binding, human; conditions: human, pH 7.4
[8] = test system: Pgp, MRP1 and BCRP co-immobilized; assay: in vitro; conditions: human, pH 7.4, Binding affinity (Kd), NMAC(LN-229)-IAM column, all transporters, ammonium acetate 10 mM pH 7.4, 0.4 mL/min

Change in retention of etoposide [1]: −5%
Structure (SMILES): Cc1cn([C@H]2C[C@H](N=[N+]=[N-])[C@@H](CO)O2)c(=O)[nH]c1=O [AZT, zidovudine]

Kd [2]: 1750 ± 360 nM
Kd [3]: 690 ± 170 nM
Structure (SMILES): COc1ccc(-c2coc3cc(O)cc(O)c3c2=O)cc1 [biochanin A]

Structure (SMILES): COc1cc([C@@H]2c3cc4c(cc3[C@@H](O[C@@H]3O[C@@H]5CO[C@@H](C)O[C@H]5[C@H](O)[C@H]3O)[C@H]3COC(=O)[C@H]23)OCO4)cc(OC)c1O [etoposide]
Kd [4]: 1410 ± 540 nM
Reduction of breakthrough volume on addition of 2 μM verapamil ([4]; 0.75 μM etoposide, NMAC(LN-229)-IAM): ~ 10%
Reduction of breakthrough volume on addition of 2 μM verapamil ([4]; 5 μM etoposide, NMAC(LN-229)-IAM): ~ 15%
Breakthrough volume with 2 μM verapamil in mobile phase ([4]; 5 μM etoposide, NMAC(LN-229)-IAM, 2 μM verapamil): 21.01 min
Kd [5]: 4390 ± 1930 nM
Kd [6]: 1260 ± 360 nM
Kd [7]: 2250 ± 490 nM
Kd [8]: 3750 ± 970 nM
